The source of these data is US9610367B2, “Particle and contrast agent having the particle” (CANON KABUSHIKI KAISHA, priority 2010, dated 2017).

What all share (format): physicochemical
The nature of data set [1]: dissolution of ICG in chloroform with lipids without a positively charged region. As to conditions: lipid without positively charged region used instead of DOPE. From the text:
Instead of DOPE of Example 1, lipids (chemical formula 8, tristearin; chemical formula 9, triolein; chemical formula 10, ethyl stearate; chemical formula 11, β-carotene; and chemical formula 12, cholesterol acetate) without a positively charged region represented by the following chemical formulas 8 to 12 were used to prepare an ICG composition in the same manner as in Example 1. However, ICG was not dissolved in chloroform in any case, and a target polymer nanoparticle containing ICG could not be obtained.

Data set [2] in a line: stability of aqueous dispersion: absorbance at λmax over time at 4° C. in a dark place. The settings on record: at 48 hours; ICG dissolved in water. How it is done:
To evaluate the stability of polymer nanoparticles, aqueous dispersions of PNP1 and PNP2 were allowed to stand at 4° C. in a dark place, and changes in the absorbance at λmax were measured over time. The results are illustrated in FIGS. 5 and 6. As a comparative example, changes with time in the absorbance at λmax of NPL 1 and in an ICG solution are illustrated in FIG. 5.
Changes in the absorbance of the aqueous dispersions of PNP4 to PNP6 at λmax were measured over time in the same manner as in Example 9. The results are illustrated in FIGS. 7 and 8. As a comparative example, changes with time in the absorbance at λmax of NPL 1 and in an ICG solution are illustrated in FIG. 7.
The PNP10 prepared in Example 13 was diluted with water, and the absorbance was measured over time with an absorption spectrometer (Perkin Elmer). The dispersion was shielded from a light except when measurement was performed and stored at 4° C. The measurement results are illustrated in FIG. 9.

Data set [3] can be described thus: solubility of ICG in dichloromethane when phospholipid was added. The settings on record: phospholipid not added; inferred from absorption curve integral values. How it is done: 2 molar equivalents of a phospholipid was added to 5.5 mg of ICG. As the phospholipid, DSPC or DOPE was used. Each of these ICG-phospholipid mixtures was dissolved in 2 mL of dichloromethane. Controls were prepared by dissolving in ICG in methanol or dichloromethane. All these ICG solutions were filtered with a filter having a pore size of 0.2 μm and then diluted 500-fold with dichloromethane.

`CC(=O)O[C@H]1CC[C@@]2(C)C(=CC[C@H]3[C@@H]4CC[C@H]([C@H](C)CCCC(C)C)[C@@]4(C)CC[C@@H]32)C1` [cholesterol acetate]: in data set [1], the “dissolution of ICG in chloroform” value is recorded as “not dissolved”.
Still for that read-out and setting: the entry for `CCCCCCCCCCCCCCCCCC(=O)OCC` [ethyl stearate] is “not dissolved”; for `CCCCCCCC/C=C\CCCCCCCC(=O)OCC(COC(=O)CCCCCCC/C=C\CCCCCCCC)OC(=O)CCCCCCC/C=C\CCCCCCCC` [triolein] it is “not dissolved”.
As for `CCCCCCCCCCCCCCCCCC(=O)OCC(COC(=O)CCCCCCCCCCCCCCCCC)OC(=O)CCCCCCCCCCCCCCCCC` [tristearin], the “dissolution of ICG in chloroform” value in data set [1] was “not dissolved”.
On to indocyanine green [ICG], for which, in data set [2], the “absorbance change rate at λmax” value came to 70%. Also, in data set [3], the “ICG dissolved in dichloromethane” value was “approximately 0.6 mM”.
